Reference: patent US6342501B1, “Pyrrolo[2,3-d] pyrimidines as antiviral agents” (The Regents of the University of Michigan, priority 1994, dated 2002)

Columns and labels:
HSV-1 = conditions: prior studies; mechanism other than inhibition of DNA synthesis, early in replication cycle; cited from earlier work
HCMV = conditions: prior studies; mechanism other than inhibition of DNA synthesis, early in replication cycle; cited from earlier work
[1] = test system: human foreskin fibroblasts (HFF cells); assay: Cytotoxicity in stationary HFF cells (microscopic inspection of plaque assay cells); type: cell-based; conditions: Table 1, cytotoxicity, stationary HFF cells, visual, read-out: HFF
Experimental: (§1) Two different assays were used to explore cytotoxicity of selected compounds: (i) Cytotoxicity produced in stationary HFF cells was determined by microscopic inspection of cells used in plaque assays which were not affected by the virus [Turk, S. R., et al, Antimicrob.
(§2) Dose-response relationships were constructed by linearly regressing the percent inhibition of parameters derived in the preceding sections against logarithm 10 drug concentrations. […] Samples containing positive controls (acyclovir for HSV-1 and ganciclovir for HCMV) were used in all assays.

[2] = test system: human cytomegalovirus (HCMV); assay: microbe, parasite or virus in culture; type: cell-based, Towne strain; conditions: for IC50: Human betaherpesvirus 5, HFF, read-out: HCMV; for antiviral activity against HCMV (in words): comment on Table 1 data
Experimental: (§3) The routine growth and passage of KB and BSC-1 cells was performed in monolayer cultures using minimal essential medium (MEM) with either Hanks salts [MEM(H)] or Earle salts [MEM(E)] supplemented with 10% calf serum. The sodium bicarbonate concentration was varied to meet the buffering capacity required. Cultures of diploid human foreskin fibroblast (HFF) or MRC-5 cells were grown in medium consisting of MEM(E) with 10% fetal bovine serum. Cells were passaged at 1:2 to 1:10 dilutions according to conventional procedures by using 0.05% trypsin plus 0.02% EDTA in a HEPES buffered salt solution (HBS) [Shipman, C., Jr., Proc. Soc. […] HFF and MRC-5 cells were passaged only at 1:2 dilutions. The Towne strain, plaque-purified isolate Po, of HCMV was kindly provided by Dr. Mark Stinski, University of Iowa. The KOS strain of HSV-1 was used in most experiments and was provided by Dr. Sandra K. Weller, University of Conn.
Stock HCMV was prepared by infecting HFF cells at a multiplicity of infection (m.o.i.) of <0.01 plaque-forming units (p.f.u.) per cell. Cell growth medium was changed every four days until cytopathology was evident in all cells (approximately 21 days). Supernatant fluids were retained as the virus stock.
Virus titers were determined using monolayer cultures of HFF cells for HCMV and monolayer cultures of BSC-1 cells for HSV-1 as described earlier [Prichard, M. N., et al., J. Virol. […] Briefly, HFF or BSC-1 cells were planted as described above in 96-well cluster dishes and incubated overnight at 37. degree. C. in a humidified 3% C02 -97% air atmosphere. The next day cultures were inoculated with HCMV or HSV-1 and serially diluted 1:3 across the remaining eleven columns of the 96-well plate. Cultures were incubated at 37. degree. C. for 2 hr to permit virus adsorption and then virus inoculum was replaced with 0.2 ml of fresh medium. Cultures were incubated for seven days for HCMV, two or three days for HSV-1, the medium was removed, and the cell sheets were stained with 0.1% crystal violet in 20% methanol.
HFF cells in 24-well cluster dishes were infected with approximately 100 p.f.u. of HCMV per cm^2 cell sheet using the procedures detailed above. Following virus adsorption, compounds dissolved in growth medium were added to duplicate wells in four to eight selected concentrations. After incubation at 37° C. for 7 to 10 days, cell sheets were fixed, stained with crystal violet and microscopic plaques enumerated as described above.
After virus adsorption, inoculum was replaced with 0.2 mL of fresh medium containing test compounds. The first row of 12 wells was left undisturbed and served as virus controls. Each well in the second row received an additional 0.1 mL of medium with test compound at three times the desired final concentration. The contents of the 12 wells were mixed by repeated pipetting and then serially diluted 1:3 along the remaining wells. In this manner, six compounds could be tested in duplicate on a single plate with concentrations from […]. Plates were incubated at 37° C. for seven days, subjected to one cycle of freezing and thawing; aliquots from each of the eight wells of a given column were transferred to the first column of a fresh 96-well monolayer culture of HFF cells. Contents were mixed and serially diluted 1:3 across the remaining eleven columns of the secondary plate. Each column of the original primary plate was diluted across a separate plate in this manner. Cultures were incubated, plaques were enumerated, and titers calculated as described above.
as §2

KB cells = assay: Cytotoxicity: KB cell growth (crystal violet staining); type: cell-based; conditions: Homo sapiens; Table 1; cytotoxicity, KB cell growth, 48 hours; read-out: KBgrv
Experimental: as §1
Briefly, 96-well cluster dishes were planted with KB cells at 3000-5000 cells per well. After overnight incubation at 37° C., test compound was added in quadruplicate at six to eight concentrations. Plates were incubated at 37° C for 48 hours in a CO2 incubator, rinsed, fixed with 95% ethanol, and stained with 0.1% crystal violet. Acidified ethanol was added and plates read at 570 nm in a spectrophotometer designed to read 96-well ELISA assay plates.
as §2

[3] = test system: herpes simplex virus type 1 (HSV-1); assay: HSV-1 ELISA in BSC-1 cells; type: cell-based, KOS strain; conditions: Human alphaherpesvirus 1, 72 h; Table 1; fifty-percent inhibitory concentration, ELISA, BSC-1 cells, 3-day incubation; read-out: HSV-1
Experimental: as §3
High titer HSV-1 stocks were prepared by infecting BSC cells at an m.o.i. of <0.1 as detailed previously [Turk, S. R., et al., Antimicrob.
Ninety-six-well cluster dishes were planted with 10,000 BSC-1 cells per well in 200 μL per well of MEM(E) plus 10% calf serum. After overnight incubation at 37° C., selected drug concentrations in quadruplicate and HSV-1 at a concentration of 100 p.f.u./well were added. Following a 3-day incubation at 37° C., medium was removed, plates were blocked, rinsed, and horse radish peroxidase conjugated rabbit anti-HSV-1 antibody was added. Following removal of the antibody containing solution, plates were rinsed, and then developed by adding 150 μL per well of a solution of tetramethylbenzidine as substrate. The reaction was stopped with H2SO4 and absorbance was read at 450 and 570 nm. Drug effects were calculated as a percentage of the reduction in absorbance in the presence of each drug concentration compared to absorbance obtained with virus in the absence of drug.
as §2

melting point	SMILES	inhibition of HSV-1 viral replication (in words) (HSV-1)	inhibition of HCMV viral replication (in words) (HCMV)	IC50 [1] [µM]	IC50 [2] [µM]	IC50 (KB cells) [µM]	IC50 [3] [µM]	antiviral activity against HCMV (in words) [2]
	COCCOCn1cc(C(N)=S)c2c(N)ncnc21 [compound 5b, 4-amino-7-[(2-methoxyethoxy)methyl]pyrrolo[2,3-d]pyrimidine-5-thiocarboxamide]	inhibited	inhibited					
280 °C (dec.)	N#Cn1c(Br)c(CCc2ccc(Cl)cc2)c2ncnc(N)c21 [Compound 6f, 4-Amino-6-Bromo-5-cyano-7-(4-chlorophenethyl)pyrrolo[2,3]pyrimidine]							
	N#Cc1c(Br)n(Cc2ccc(Br)cc2)c2ncnc(N)c12 [Compound 1373, 4-amino-6-bromo-7-(4-bromobenzyl)-pyrrolo[2,3-d]pyrimidine-5-carbonitrile]			10.5	10.5	> 100	> 100	
	N#Cc1cn(CC=Cc2ccccc2)c2ncnc(N)c12 [Compound 1372, 4-amino-7-(3-phenyl)prop-2-enyl-pyrrolo[2,3-d]pyrimidine-5-carbonitrile]			> 10	> 10	> 100	> 100	
	N#Cc1c(Br)n(Cc2ccc([N+](=O)[O-])cc2)c2ncnc(N)c12 [Compound 1331, 4-amino-6-bromo-7-(4-nitrobenzyl)-pyrrolo[2,3-d]pyrimidine-5-carbonitrile]			> 10	> 10	> 100	> 100	
	N#Cc1cn(CCc2ccccc2)c2ncnc(N)c12 [Compound 1368, 4-amino-7-(2-phenyl)ethyl-pyrrolo[2,3-d]pyrimidine-5-carbonitrile]			32	0.7	> 100	10	excellent activity
	N#Cc1c(Br)n(Cc2ccc(Cl)c(Cl)c2)c2ncnc(N)c12 [Compound 1462, 4-amino-6-bromo-7-(3,4-dichlorobenzyl)-pyrrolo[2,3-d]pyrimidine-5-carbonitrile]			> 100	> 100	> 100	> 100	
	CC(c1ccccc1)n1c(Br)c(C#N)c2c(N)ncnc21 (stereo not shown) [Compound 1363, 4-amino-6-bromo-7-((2-phenyl)eth-2-yl)-pyrrolo[2,3-d]pyrimidine-5-carbonitrile]			> 100	2.7	50	90	good to excellent antiviral activity
	N#Cc1c(N)n(Cc2ccc(Br)cc2)c2ncnc(N)c12 [Compound 1389, 4,6-diamino-7-(4-bromobenzyl)-pyrrolo[2,3-d]pyrimidine-5-carbonitrile]			> 10	0.2	15	> 100	good to excellent antiviral activity
	N#Cc1c(N)n(Cc2ccc([N+](=O)[O-])cc2)c2ncnc(N)c12 [Compound 1348, 4,6-diamino-7-(4-nitrobenzyl)-pyrrolo[2,3-d]pyrimidine-5-carbonitrile]			> 10	0.6	> 100	156	good to excellent antiviral activity
	N#Cc1c(Br)n(Cc2cccc([N+](=O)[O-])c2)c2ncnc(N)c12 [Compound 1374, 4-amino-6-bromo-7-(3-nitrobenzyl)-pyrrolo[2,3-d]pyrimidine-5-carbonitrile]			> 10	> 10	> 100	> 100	
